Patent publication US5747530A, “Aromatic dibenzofuran compounds and pharmaceutical/cosmetic compositions comprised thereof” (Centre International de Recherches Dermatologiques Galderma, priority 1994, dated 1998)
pIC50, pKd: −log10 of the molar value.

Key:
RAR β = biological target: T1, RAR β (Homo sapiens, UniProt P10826); assay: Affinity for RAR β receptor (Kd); format: binding; conditions: read-out: Affinities for receptors Kd, RAR β
T1 sequence (P10826 1-448 isoform P10826-2): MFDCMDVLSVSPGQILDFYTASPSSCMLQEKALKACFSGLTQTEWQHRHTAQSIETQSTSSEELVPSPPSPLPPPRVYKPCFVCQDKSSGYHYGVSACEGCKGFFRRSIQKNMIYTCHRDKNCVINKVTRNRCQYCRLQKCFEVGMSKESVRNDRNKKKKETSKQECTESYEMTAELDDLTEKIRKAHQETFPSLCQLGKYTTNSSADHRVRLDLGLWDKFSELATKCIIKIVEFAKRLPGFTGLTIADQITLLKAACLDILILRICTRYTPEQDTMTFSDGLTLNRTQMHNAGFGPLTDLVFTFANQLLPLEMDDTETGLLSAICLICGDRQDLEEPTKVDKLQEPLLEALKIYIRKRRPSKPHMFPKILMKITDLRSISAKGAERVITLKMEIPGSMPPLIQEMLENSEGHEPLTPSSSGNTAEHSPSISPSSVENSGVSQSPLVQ
Protocol: (§1) Biological activities of certain compounds described and exemplified above:
(§2) ^(a) The affinites for the RARs were determined under the conditions
(§3) described in B. Martin et al, "Selective Synthetic Ligands for Human
(§4) Nuclear Retinoic Acid Receptors," Skin Pharmacol., 5, 57-65 (1992).

F9 cells [1] = assay: Antagonist activity with respect to the differentiation of F9 cells; format: cell-based; conditions: Mus musculus; coincubation with reference agonist (F9 AC50 = 4nM)
Protocol: Their activities may also be measured in tests of cellular transactivation using previously transfected recombinant RAR or RXR receptors (B. A. Bernard et al, Biochemical and Biophysical Research Communications, vol. 186, pp. 977-983 (1992)); M. F. Boehm et al, Journal of Medicinal Chemistry, p37, pp. 408-414 (1994)).
^(b) The antagonist activity was determined by coincubating a
[N(4-carboxybenzyl)-5,6,7,8-tetrahydro-5,5,8,8-tetramethyl-2-naphthylamin
(F9 AC50 = 4nM)] and different concentrations of the test retinoid.
These experiments were carried out under conditions for the determination
of activity with respect to the differentiation of F9 cells according to
the technique described in M. Darmon, M. Rocher, M. T. Cavey, B. Martin,
T. Rabilloud, C. Delescluse and B. Shroot, "Biological activity of
retinoids correlates with affinity for nuclear receptors, but not for
cytosolic binding protein," Skin Pharmacol., 1, 161-175 (1988).

RAR γ = biological target: T2, RAR γ (Homo sapiens, UniProt P13631); assay: Affinity for RAR γ receptor (Kd); format: binding; conditions: read-out: Affinities for receptors Kd, RAR γ
T2 sequence (P13631 1-454): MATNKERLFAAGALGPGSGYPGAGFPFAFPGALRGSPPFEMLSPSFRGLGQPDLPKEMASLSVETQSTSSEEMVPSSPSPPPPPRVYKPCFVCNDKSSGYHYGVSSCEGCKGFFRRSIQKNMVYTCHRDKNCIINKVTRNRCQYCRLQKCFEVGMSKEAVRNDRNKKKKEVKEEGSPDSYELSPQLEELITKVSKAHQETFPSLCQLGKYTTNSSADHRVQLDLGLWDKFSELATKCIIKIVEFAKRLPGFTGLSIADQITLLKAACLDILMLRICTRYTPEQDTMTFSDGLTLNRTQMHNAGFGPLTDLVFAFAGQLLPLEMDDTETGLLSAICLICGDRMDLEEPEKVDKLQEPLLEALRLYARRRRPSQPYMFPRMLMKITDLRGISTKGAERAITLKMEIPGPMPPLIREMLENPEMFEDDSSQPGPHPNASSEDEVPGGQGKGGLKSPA
Protocol: as §1, §2, §3, §4

RAR α = biological target: T3, RAR α (Homo sapiens, UniProt P10276); assay: Affinity for RAR α receptor (Kd); format: binding; conditions: read-out: Affinities for receptors Kd, RAR α
T3 sequence (P10276 1-462): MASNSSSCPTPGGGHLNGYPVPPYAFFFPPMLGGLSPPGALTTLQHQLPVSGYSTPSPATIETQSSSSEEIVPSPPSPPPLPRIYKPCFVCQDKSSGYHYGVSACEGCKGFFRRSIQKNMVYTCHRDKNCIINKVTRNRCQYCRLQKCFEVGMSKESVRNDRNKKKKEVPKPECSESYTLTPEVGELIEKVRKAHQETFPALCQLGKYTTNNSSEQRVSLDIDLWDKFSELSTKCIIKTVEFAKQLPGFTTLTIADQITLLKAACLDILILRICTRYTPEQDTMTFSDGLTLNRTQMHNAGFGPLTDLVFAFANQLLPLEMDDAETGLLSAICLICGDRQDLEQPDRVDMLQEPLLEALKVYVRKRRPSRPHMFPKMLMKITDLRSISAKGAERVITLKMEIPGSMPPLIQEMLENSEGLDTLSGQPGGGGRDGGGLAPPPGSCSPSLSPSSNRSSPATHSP
Protocol: as §1, §2, §3, §4

F9 cells [2] = assay: Agonist activity, differentiation of F9 cells; format: cell-based; conditions: Mus musculus, reference agonist

Which results are given for `CC12CCC(C1)C1(C)Oc3ccc(C(=O)/C=C/c4ccc(C(=O)O)cc4)cc3C21C` (single isomer, unassigned) [Example 23, 4-[(E)-3-(1,2,3,4-Tetrahydro-1,4a,9b-trimethyl-1,4-methanodibenzofuran-8-yl)-3-oxo-1-propenyl]benzoic acid]?
pKd (RAR β): 7.28; pIC50 (F9 cells [1]): 7.72; pKd (RAR γ): 7.57; pKd (RAR α): 6.66

What does the source list for `CC12CCC(C1)C1(C)Oc3ccc(C(=O)COc4ccc(C(=O)O)cc4)cc3C21C` (stereo not drawn) [Example 12, 4-[2-(1,2,3,4-tetrahydro-1,4a,9b-trimethyl-1,4-methanodibenzofuran-8-yl)-2-oxoethoxy]benzoic acid]?
pKd (RAR β): 6.13; pIC50 (F9 cells [1]): 7.40; pKd (RAR γ): 6.32; pKd (RAR α): 5.49

What does the source list for `CC12CCC(C1)C1(C)Oc3ccc(C(O)COc4ccc(C(=O)O)cc4)cc3C21C` (stereo not drawn) [Example 13, 4-[2-(1,2,3,4-tetrahydro-1,4a,9b-trimethyl-1,4-methanodibenzofuran-8-yl)-2-hydroxyethoxy]benzoic acid]?
pKd (RAR β): 6.64; pIC50 (F9 cells [1]): 7.44; pKd (RAR γ): 7.40; pKd (RAR α): < 5.49

With `CC12CCC(C1)C1(C)Oc3ccc(C(=O)COc4ccc(C(=O)O)c(O)c4)cc3C21C` (stereo not drawn) [Example 15, 4-[2-(1,2,3,4-tetrahydro-1,4a,9b-trimethyl-1,4-methanodibenzofuran-8-yl)-2-oxoethoxy]-2-hydroxybenzoic acid] as the compound, how does the pKd (RAR β) read?
The pKd was 6.94.

What about the pIC50 (F9 cells [1]) of the same compound?
The pIC50 was 7.26.

And the pKd (RAR γ)?
The pKd was 6.82.

What about the pKd (RAR α) of the same compound?
Its pKd is 5.60.

With `CC12CCC(C1)C1(C)Oc3ccc(CCOc4ccc(C(=O)O)c(O)c4)cc3C21C` (stereo not drawn) [Example 17, 4-[2-(1,2,3,4-tetrahydro-1,4a,9b-trimethyl-1,4-methanodibenzofuran-8-yl)ethoxy]-2-hydroxybenzoic acid] as the compound, how does the pKd (RAR β) read?
Its pKd is 6.50.

And the pIC50 (F9 cells [1])?
The pIC50 was 6.57.

What about the pKd (RAR γ) of the same compound?
The pKd was 5.65.

And the pKd (RAR α)?
The pKd was < 5.00.

For `CC1(C)CCC(C)(C)c2cc(NCc3ccc(C(=O)O)cc3)ccc21` [N(4-carboxybenzyl)-5,6,7,8-tetrahydro-5,5,8,8-tetramethyl-2-naphthylamin], which AC50 (F9 cells [2]) is on record?
Its AC50 is 4 nM.
